Data published in the NIST ThermoML archive (doi:10.1021/je060271a).
± gives the expanded uncertainty stated by the source.

Settings: 323.15 K, Liquid, Vibrating tube method

CCCCC(=O)OCC(COC(=O)CCCC)(COC(=O)CCCC)COC(=O)CCCC [pentaerythritol tetrapentanoate]
Settings	mass density [kg/m3]
25366 kPa	1011.6 ± 1.2
25395 kPa	1011.5 ± 1.2
25431 kPa	1011.6 ± 1.2
25460 kPa	1011.6 ± 1.2
25495 kPa	1011.6 ± 1.2
25525 kPa	1011.6 ± 1.2
25555 kPa	1011.6 ± 1.2
25590 kPa	1011.6 ± 1.2
25620 kPa	1011.7 ± 1.2
25651 kPa	1011.7 ± 1.2
25684 kPa	1011.7 ± 1.2
25714 kPa	1011.8 ± 1.2
25750 kPa	1011.8 ± 1.2
25780 kPa	1011.9 ± 1.2
25817 kPa	1011.9 ± 1.2
25847 kPa	1011.7 ± 1.2
25878 kPa	1011.8 ± 1.2
25908 kPa	1012 ± 1.2
25945 kPa	1011.9 ± 1.2
25976 kPa	1011.9 ± 1.2
26007 kPa	1011.9 ± 1.2
26044 kPa	1011.9 ± 1.2
26076 kPa	1011.8 ± 1.2
26107 kPa	1012 ± 1.2
26145 kPa	1012 ± 1.2
26176 kPa	1012 ± 1.2
26208 kPa	1012.1 ± 1.2
26245 kPa	1012.1 ± 1.2
26277 kPa	1012 ± 1.2
26308 kPa	1012.1 ± 1.2
26346 kPa	1012 ± 1.2
26378 kPa	1012.2 ± 1.2
26410 kPa	1012.2 ± 1.2
26448 kPa	1012.2 ± 1.2
26480 kPa	1012.3 ± 1.2
26512 kPa	1012.2 ± 1.2
26551 kPa	1012.2 ± 1.2
26584 kPa	1012.3 ± 1.2
26617 kPa	1012.3 ± 1.2
26656 kPa	1012.3 ± 1.2
26689 kPa	1012.2 ± 1.2
26722 kPa	1012.4 ± 1.2
26754 kPa	1012.4 ± 1.2
26794 kPa	1012.3 ± 1.2
26826 kPa	1012.3 ± 1.2
26860 kPa	1012.3 ± 1.2
26900 kPa	1012.5 ± 1.2
26933 kPa	1012.5 ± 1.2
26967 kPa	1012.4 ± 1.2
27007 kPa	1012.6 ± 1.2
27041 kPa	1012.5 ± 1.2
27075 kPa	1012.5 ± 1.2
27109 kPa	1012.6 ± 1.2
27150 kPa	1012.7 ± 1.2
27183 kPa	1012.7 ± 1.2
27218 kPa	1012.7 ± 1.2
27258 kPa	1012.7 ± 1.2
27292 kPa	1012.6 ± 1.2
27327 kPa	1012.6 ± 1.2
27362 kPa	1012.7 ± 1.2
27404 kPa	1012.7 ± 1.2
27440 kPa	1012.7 ± 1.2
27475 kPa	1012.8 ± 1.2
27510 kPa	1012.9 ± 1.2
27552 kPa	1012.9 ± 1.2
27586 kPa	1012.9 ± 1.2
27628 kPa	1012.9 ± 1.2
27663 kPa	1012.9 ± 1.2
27698 kPa	1012.9 ± 1.2
27733 kPa	1012.9 ± 1.2
27776 kPa	1013.1 ± 1.2
27811 kPa	1013.1 ± 1.2
27847 kPa	1013 ± 1.2
27890 kPa	1013.1 ± 1.2
27926 kPa	1013.1 ± 1.2
27968 kPa	1013.1 ± 1.2
28005 kPa	1013.1 ± 1.2
28041 kPa	1013.1 ± 1.2
28077 kPa	1013.2 ± 1.2
28122 kPa	1013.2 ± 1.2
28158 kPa	1013.1 ± 1.2
28195 kPa	1013.3 ± 1.2
28238 kPa	1013.2 ± 1.2
28276 kPa	1013.3 ± 1.2
28313 kPa	1013.4 ± 1.2
28357 kPa	1013.2 ± 1.2
28396 kPa	1013.3 ± 1.2
28435 kPa	1013.4 ± 1.2
28472 kPa	1013.4 ± 1.2
28511 kPa	1013.4 ± 1.2
28557 kPa	1013.5 ± 1.2
28595 kPa	1013.5 ± 1.2
28633 kPa	1013.5 ± 1.2
28672 kPa	1013.6 ± 1.2
28719 kPa	1013.5 ± 1.2
28798 kPa	1013.6 ± 1.2
28964 kPa	1013.6 ± 1.2
28998 kPa	1013.7 ± 1.2
29025 kPa	1013.8 ± 1.2
29053 kPa	1013.7 ± 1.2
29087 kPa	1013.7 ± 1.2
29115 kPa	1013.8 ± 1.2
29143 kPa	1013.8 ± 1.2
29325 kPa	1013.9 ± 1.2
29354 kPa	1014 ± 1.2
29388 kPa	1013.9 ± 1.2
29418 kPa	1014 ± 1.2
29452 kPa	1014 ± 1.2
29480 kPa	1013.9 ± 1.2
29509 kPa	1014.1 ± 1.2
29544 kPa	1014 ± 1.2
29573 kPa	1014 ± 1.2
29602 kPa	1014.1 ± 1.2
29638 kPa	1014.2 ± 1.2
29667 kPa	1014.1 ± 1.2
29697 kPa	1014.1 ± 1.2
29733 kPa	1014.2 ± 1.2
29762 kPa	1014.2 ± 1.2
29792 kPa	1014.2 ± 1.2
29822 kPa	1014.1 ± 1.2
29857 kPa	1014.2 ± 1.2
29886 kPa	1014.2 ± 1.2
29917 kPa	1014.3 ± 1.2
29952 kPa	1014.3 ± 1.2
29982 kPa	1014.4 ± 1.2
30012 kPa	1014.3 ± 1.2
30049 kPa	1014.4 ± 1.2
30078 kPa	1014.4 ± 1.2
30109 kPa	1014.5 ± 1.2
30146 kPa	1014.5 ± 1.2
30177 kPa	1014.4 ± 1.2
30208 kPa	1014.5 ± 1.2
30238 kPa	1014.4 ± 1.2
30275 kPa	1014.4 ± 1.2
30306 kPa	1014.5 ± 1.2
30342 kPa	1014.6 ± 1.2
30373 kPa	1014.5 ± 1.2
30404 kPa	1014.6 ± 1.2
30435 kPa	1014.6 ± 1.2
30472 kPa	1014.7 ± 1.2
30504 kPa	1014.6 ± 1.2
30535 kPa	1014.7 ± 1.2
30573 kPa	1014.7 ± 1.2
30604 kPa	1014.7 ± 1.2
30641 kPa	1014.6 ± 1.2
30673 kPa	1014.7 ± 1.2
30705 kPa	1014.8 ± 1.2
30742 kPa	1014.7 ± 1.2
30774 kPa	1014.9 ± 1.2
30806 kPa	1014.9 ± 1.2
30838 kPa	1014.8 ± 1.2
30876 kPa	1014.9 ± 1.2
30908 kPa	1014.9 ± 1.2
30947 kPa	1014.9 ± 1.2
30979 kPa	1014.9 ± 1.2
31012 kPa	1014.9 ± 1.2
31051 kPa	1014.9 ± 1.2
31084 kPa	1015 ± 1.2
31116 kPa	1015.1 ± 1.2
31149 kPa	1015 ± 1.2
